In ChEMBL document CHEMBL1909046, “DrugMatrix in vitro pharmacology data”:

Experiments:
[1] = DRUGMATRIX: ATPase, Na+/K+ enzyme inhibition (substrate: ATP); assay type: tissue-based, Sus scrofa, Heart; conditions: Not Active = under 50% inhibition at 10 µM
[2] = molecular target: T1, Nitric oxide synthase, inducible (Mus musculus, UniProt P29477); set-up: species or system Escherichia coli;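 further: inhibition of iNOS enzyme activity measured with L-arginine as substrate; in other assays of this panel Not Active means under 50% inhibition at 10 µM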
T1 sequence (P29477 whole entry): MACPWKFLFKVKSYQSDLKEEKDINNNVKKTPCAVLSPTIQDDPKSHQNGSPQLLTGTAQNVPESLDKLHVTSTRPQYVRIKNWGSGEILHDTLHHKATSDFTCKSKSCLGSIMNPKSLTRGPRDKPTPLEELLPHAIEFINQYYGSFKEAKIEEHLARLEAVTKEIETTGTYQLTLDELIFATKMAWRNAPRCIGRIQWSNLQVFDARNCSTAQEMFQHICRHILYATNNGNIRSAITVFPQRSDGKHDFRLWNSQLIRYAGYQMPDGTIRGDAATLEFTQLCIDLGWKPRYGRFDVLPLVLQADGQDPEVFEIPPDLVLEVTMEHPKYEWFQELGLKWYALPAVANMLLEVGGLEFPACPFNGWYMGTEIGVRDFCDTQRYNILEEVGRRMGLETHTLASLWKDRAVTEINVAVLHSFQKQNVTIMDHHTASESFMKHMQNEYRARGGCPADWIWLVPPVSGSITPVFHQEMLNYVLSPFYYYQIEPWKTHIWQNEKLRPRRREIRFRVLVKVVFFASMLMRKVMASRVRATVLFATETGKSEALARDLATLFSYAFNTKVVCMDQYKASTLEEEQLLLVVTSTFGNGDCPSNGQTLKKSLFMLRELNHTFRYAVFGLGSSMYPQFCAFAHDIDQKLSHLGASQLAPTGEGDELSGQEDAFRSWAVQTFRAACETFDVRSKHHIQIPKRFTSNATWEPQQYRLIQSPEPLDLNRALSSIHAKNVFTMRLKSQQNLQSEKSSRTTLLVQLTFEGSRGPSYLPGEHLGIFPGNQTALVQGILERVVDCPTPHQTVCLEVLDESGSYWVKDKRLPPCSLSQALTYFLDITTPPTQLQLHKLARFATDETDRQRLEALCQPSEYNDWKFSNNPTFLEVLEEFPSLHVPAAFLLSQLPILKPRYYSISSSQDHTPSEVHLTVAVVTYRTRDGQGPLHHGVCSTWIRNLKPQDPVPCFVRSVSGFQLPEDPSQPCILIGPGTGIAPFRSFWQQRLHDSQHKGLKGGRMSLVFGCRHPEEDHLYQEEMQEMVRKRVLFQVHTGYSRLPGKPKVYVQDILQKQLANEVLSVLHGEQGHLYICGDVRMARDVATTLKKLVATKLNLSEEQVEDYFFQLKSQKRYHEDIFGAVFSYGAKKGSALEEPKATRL

[3] = molecular target: Beta-3 adrenergic receptor (Homo sapiens, UniProt P13945); assay: DRUGMATRIX: Adrenergic beta3 radioligand binding (ligand: [125I] Cyanopindolol); assay type: cell membranes, HEK293, Membrane; conditions: Not Active = under 50% inhibition at 10 µM
[4] = molecular target: C-C chemokine receptor type 2 (Homo sapiens, UniProt P41597); assay type: cell membranes, Membrane; conditions: cho-k1; further: in other assays of this panel Not Active means under 50% inhibition at 10 µM
[5] = molecular target: Sodium-dependent noradrenaline transporter (Homo sapiens, UniProt P23975); assay: DRUGMATRIX: Norepinephrine Transporter radioligand binding (ligand: [125I] RTI-55); assay type: cell membranes, MDCK, Membrane; conditions: Not Active = under 50% inhibition at 10 µM
Melanocortin receptor 4 = Melanocortin receptor 4 (Homo sapiens, UniProt P32245); assay type: cell membranes, HEK293, Membrane; further: in other assays of this panel Not Active means under 50% inhibition at 10 µM
Cytochrome P450 2C9 = Cytochrome P450 2C9 (Homo sapiens, UniProt P11712); conditions: bti-tn-5b1-4; further: in other assays of this panel Not Active means under 50% inhibition at 10 µM
Sequence of Cytochrome P450 2C9 (P11712 whole entry): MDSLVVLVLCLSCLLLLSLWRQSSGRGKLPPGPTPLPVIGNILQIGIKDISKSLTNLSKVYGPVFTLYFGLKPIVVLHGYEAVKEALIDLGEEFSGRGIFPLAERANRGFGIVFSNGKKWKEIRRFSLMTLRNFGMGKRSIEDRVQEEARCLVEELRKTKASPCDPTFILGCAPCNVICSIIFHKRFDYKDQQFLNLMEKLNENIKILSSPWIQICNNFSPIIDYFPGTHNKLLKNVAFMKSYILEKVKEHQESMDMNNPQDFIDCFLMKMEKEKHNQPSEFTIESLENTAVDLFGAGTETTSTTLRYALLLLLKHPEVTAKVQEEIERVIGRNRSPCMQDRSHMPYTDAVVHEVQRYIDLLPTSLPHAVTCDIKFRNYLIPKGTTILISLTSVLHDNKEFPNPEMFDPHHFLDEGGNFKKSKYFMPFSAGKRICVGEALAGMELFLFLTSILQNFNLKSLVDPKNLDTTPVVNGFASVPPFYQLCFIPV

Sequence of Beta-3 adrenergic receptor (P13945 whole entry): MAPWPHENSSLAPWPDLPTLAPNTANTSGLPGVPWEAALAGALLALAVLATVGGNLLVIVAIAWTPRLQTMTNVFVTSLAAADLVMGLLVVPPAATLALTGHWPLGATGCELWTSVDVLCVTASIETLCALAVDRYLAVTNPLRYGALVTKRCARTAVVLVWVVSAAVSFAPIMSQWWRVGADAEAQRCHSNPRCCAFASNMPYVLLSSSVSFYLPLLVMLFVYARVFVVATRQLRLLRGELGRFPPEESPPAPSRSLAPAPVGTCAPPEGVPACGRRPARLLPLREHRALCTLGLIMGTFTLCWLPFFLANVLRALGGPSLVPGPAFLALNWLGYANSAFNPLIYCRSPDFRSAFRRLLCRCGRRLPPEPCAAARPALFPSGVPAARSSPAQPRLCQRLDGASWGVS
Sequence of C-C chemokine receptor type 2 (P41597 whole entry): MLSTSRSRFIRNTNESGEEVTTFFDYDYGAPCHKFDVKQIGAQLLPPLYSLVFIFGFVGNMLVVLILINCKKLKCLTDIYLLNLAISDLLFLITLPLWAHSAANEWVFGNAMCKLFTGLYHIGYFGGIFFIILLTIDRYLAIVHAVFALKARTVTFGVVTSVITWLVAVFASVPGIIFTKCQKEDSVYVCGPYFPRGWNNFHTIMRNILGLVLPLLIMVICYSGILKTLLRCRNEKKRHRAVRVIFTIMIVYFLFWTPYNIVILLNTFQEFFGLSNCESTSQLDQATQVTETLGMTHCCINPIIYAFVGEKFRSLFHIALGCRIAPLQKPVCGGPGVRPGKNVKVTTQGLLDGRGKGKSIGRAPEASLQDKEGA
Sequence of Melanocortin receptor 4 (P32245 whole entry): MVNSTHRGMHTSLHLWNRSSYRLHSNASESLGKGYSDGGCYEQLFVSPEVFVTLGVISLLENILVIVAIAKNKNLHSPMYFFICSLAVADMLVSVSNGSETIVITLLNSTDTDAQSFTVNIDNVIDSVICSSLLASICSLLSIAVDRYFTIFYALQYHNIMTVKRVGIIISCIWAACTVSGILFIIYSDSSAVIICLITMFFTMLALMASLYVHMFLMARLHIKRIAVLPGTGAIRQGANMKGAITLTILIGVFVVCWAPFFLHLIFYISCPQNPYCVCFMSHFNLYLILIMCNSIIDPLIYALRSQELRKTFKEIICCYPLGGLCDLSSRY
Sequence of Sodium-dependent noradrenaline transporter (P23975 whole entry): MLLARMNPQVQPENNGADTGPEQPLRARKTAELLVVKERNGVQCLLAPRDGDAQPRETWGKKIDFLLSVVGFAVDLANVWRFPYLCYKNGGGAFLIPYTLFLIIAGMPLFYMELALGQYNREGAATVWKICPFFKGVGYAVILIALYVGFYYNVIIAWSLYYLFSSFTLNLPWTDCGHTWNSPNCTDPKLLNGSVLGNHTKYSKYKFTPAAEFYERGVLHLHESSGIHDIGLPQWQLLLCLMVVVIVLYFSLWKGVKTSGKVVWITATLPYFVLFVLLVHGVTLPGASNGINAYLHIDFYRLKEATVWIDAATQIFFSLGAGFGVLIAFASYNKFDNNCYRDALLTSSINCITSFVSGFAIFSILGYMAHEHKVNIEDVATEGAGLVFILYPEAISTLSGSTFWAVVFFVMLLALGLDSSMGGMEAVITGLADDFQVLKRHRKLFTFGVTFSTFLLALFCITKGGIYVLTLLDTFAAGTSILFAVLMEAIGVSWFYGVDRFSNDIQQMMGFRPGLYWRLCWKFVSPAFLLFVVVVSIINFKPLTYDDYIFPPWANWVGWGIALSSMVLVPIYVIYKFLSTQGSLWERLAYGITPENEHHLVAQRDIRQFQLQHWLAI

Molecule	IC50 [1]	Ki [1]	IC50 [2]	IC50 ([3]; hek293)	IC50 [4]	IC50 ([5]; mdck)	IC50 (Melanocortin receptor 4; read-out: IC50) [µM]	Ki (Melanocortin receptor 4; read-out: Ki) [µM]	IC50 (Melanocortin receptor 4; hek293)	IC50 (Cytochrome P450 2C9)	Ki (Cytochrome P450 2C9)	IC50 ([3]; read-out: IC50) [µM]	Ki ([3]; read-out: Ki) [µM]	IC50 ([5]; read-out: IC50) [µM]	Ki ([5]; read-out: Ki) [µM]	Ki [2]	Ki ([3]; hek293)	Ki [4]	Ki ([5]; mdck)	Ki (Melanocortin receptor 4; hek293)
Cc1c(C)c2c(c(C)c1O)CCC(C)(CN1CCN(c3cc(N4CCCC4)nc(N4CCCC4)n3)CC1)O2 (configuration not stated)	Not Active	Not Active	Not Active	Not Active	Not Active	Not Active	58	55.8												
COc1ccc(CCN(C)CCCC(C#N)(c2ccc(OC)c(OC)c2)C(C)C)cc1OC (configuration not stated)	Not Active	Not Active	Not Active	Not Active	Not Active				Not Active											
CC(C)Cc1ccc([C@@H](C)C(=O)O)cc1 [(R)-IBUPROPHEN]	Not Active	Not Active	Not Active	Not Active	Not Active	Not Active			Not Active	Not Active	Not Active									
CN(C)CCOC(c1ccccc1)c1ccccc1 [DIPHENHYDRAMINE]			Not Active	Not Active	Not Active				Not Active											
Clc1ccc(COC(Cn2ccnc2)c2ccc(Cl)cc2Cl)cc1 (configuration not stated) [ECONAZOLE]			Not Active		Not Active				Not Active			6.15	4.61							
CCN(CC)CCOc1ccc(/C(=C(/Cl)c2ccccc2)c2ccccc2)cc1 [ENCLOMIPHENE]			Not Active		Not Active				Not Active	Not Active	Not Active	5.67	4.25							
Fc1ccc(C(c2ccc(F)cc2)N2CCN(C/C=C/c3ccccc3)CC2)cc1 [FLUNARIZINE]			Not Active	Not Active	Not Active				Not Active	Not Active	Not Active			1.34	1.33					
CNCCC(Oc1ccc(C(F)(F)F)cc1)c1ccccc1 (configuration not stated) [FLUOXETINE]			Not Active	Not Active	Not Active				Not Active	Not Active	Not Active									
Cc1ccc(NC(=O)c2ccc(CN3CCN(C)CC3)cc2)cc1Nc1nccc(-c2cccnc2)n1 [IMATINIB]			Not Active	Not Active	Not Active	Not Active			Not Active	Not Active	Not Active									
CC(C)Oc1ccc2c(=O)c(-c3ccccc3)coc2c1 [IPRIFLAVONE]	Not Active	Not Active	Not Active	Not Active	Not Active				Not Active	Not Active	Not Active									
CC(C)NCC(O)c1ccc(O)c(O)c1 (configuration not stated) [ISOPROTERENOL]	Not Active	Not Active	Not Active	Not Active	Not Active	Not Active			Not Active	Not Active	Not Active									
CNC1(c2ccccc2Cl)CCCCC1=O (configuration not stated) [KETAMINE]	Not Active	Not Active	Not Active	Not Active	Not Active	Not Active			Not Active	Not Active	Not Active									
N#Cc1ccc(C(c2ccc(C#N)cc2)n2cncn2)cc1 [LETROZOLE]	Not Active	Not Active	Not Active	Not Active	Not Active	Not Active			Not Active	Not Active	Not Active									
CCN1CCC[C@H]1CNC(=O)c1cc(S(N)(=O)=O)ccc1OC [LEVOSULPIRIDE]	Not Active	Not Active	Not Active	Not Active	Not Active	Not Active			Not Active	Not Active	Not Active									
CCN(CC)CC(=O)Nc1c(C)cccc1C [LIDOCAINE]	Not Active	Not Active	Not Active	Not Active	Not Active	Not Active			Not Active											
O=C1Nc2ccc(Cl)cc2C(c2ccccc2Cl)=NC1O (configuration not stated) [LORAZEPAM]	Not Active	Not Active	Not Active	Not Active	Not Active	Not Active			Not Active	Not Active	Not Active									
CO[C@@H]1[C@@H](OC)[C@H](C)[C@@](O)(CC(=O)O)O[C@H]1[C@H](C)[C@H]1O[C@@]2(CC[C@@](C)([C@H]3CC[C@@](C)([C@@H]4O[C@@H]([C@H]5O[C@](C)(O)[C@H](C)C[C@@H]5C)C[C@@H]4O[C@@H]4C[C@H](OC)[C@@H](OC)[C@H](C)O4)O3)O2)C[C@H](O)[C@H]1C [MADURAMICIN ACID]	Not Active	Not Active	Not Active	Not Active	Not Active	Not Active			Not Active	Not Active	Not Active									
COc1c2occc2cc2ccc(=O)oc12 [METHOXSALEN]	Not Active	Not Active	Not Active	Not Active	Not Active	Not Active			Not Active	Not Active	Not Active									
C[C@H]1C[C@@H]2[C@H]([C@@H](O)C[C@@]3(C)[C@H]2CC[C@]3(O)C(=O)CO)[C@@]2(C)C=CC(=O)C=C12 [METHYLPREDNISOLONE]	Not Active	Not Active	Not Active	Not Active	Not Active	Not Active			Not Active	Not Active	Not Active									
Cc1cccc(C)c1OCC(C)N (configuration not stated) [MEXILETINE]	Not Active	Not Active	Not Active	Not Active	Not Active	Not Active			Not Active	Not Active	Not Active									
CN[C@H]1CC[C@@H](c2ccc(Cl)c(Cl)c2)c2ccccc21 [SERTRALINE]			Not Active	Not Active	Not Active				Not Active	Not Active	Not Active									
NC(=O)N1C(=O)/C(=C(\O)c2cccs2)c2cc(Cl)ccc21 [TENIDAP]	Not Active	Not Active	Not Active	Not Active	Not Active	Not Active			Not Active											
CCCCNc1ccc(C(=O)OCCN(C)C)cc1 [TETRACAINE]	Not Active	Not Active	Not Active	Not Active	Not Active	Not Active			Not Active											
Cn1c(=O)c2nc[nH]c2n(C)c1=O.O [THEOPHYLLINE]	Not Active	Not Active	Not Active	Not Active	Not Active	Not Active			Not Active											
O=C(Nc1ccc(Br)cc1)c1cc(Br)cc(Br)c1O [TRIBROMSALAN]	Not Active	Not Active	Not Active	Not Active	Not Active	Not Active			Not Active											
SODIUM ORTHOVANAD			Not Active	Not Active	Not Active	Not Active			Not Active	Not Active	Not Active					Not Active	Not Active	Not Active	Not Active	Not Active
